Source: patent US11833144B2, “Treating autoimmune disease” (Mayo Foundation for Medical Education and Research, priority 2020, dated 2023)

What was measured:
Assay type in all cases: cell-based, mouse
murine B cells = assay: Murine B cell proliferation (CellTrace Violet, cell number) and class switch to IgG1 in vitro
Description: Mouse B cells were isolated from pooled single cell suspensions of spleen and peripheral lymph nodes using CD19 Microbeads (Miltenyi) or Mouse B cell Isolation Kit (Stemcell Technologies). B cells were stimulated with LPS (10 μg/mL; Sigma-Aldrich) and recombinant IL-4 cytokine (10 ng/mL; Tonbo Bioscience) with or without SCD inhibitor SSI-4, and proliferation was measured by dilution of CellTrace Violet proliferation dye (Thermo Fisher Scientific). B cells were also stimulated with anti-IgM (10 μg/mL; Jackson ImmunoResearch), anti-CD40 (10 μg/mL; BioXcell) and IL-4 (10 ng/mL; Tonbo Bioscience), or TLR ligand CpG (2.5 μM; IDT), recombinant IL-4 and IL-5 (10 ng/mL; Tonbo Bioscience) cytokines. To test the function of monounsaturated and saturated fatty acids, B cells were activated in presence of exogenous fatty acid-BSA conjugate. Palmitoleic acid (NU-CHEK PREP, INC), palmitic acid (NU-CHEK PREP, INC), stearic acid (NU-CHEK PREP, INC) were conjugated with fatty acid free BSA (Sigma-Aldrich) as described elsewhere (Wang et al., Immunity 35:871-882 (2011)). Human B cells were activated with CpG OND2006 (2.5 μM; IDT), recombinant human cytokine IL-10 ([…]; Peprotech), IL-15 (10 ng/mL; Peprotech), IL-4 (10 ng/mL; Biolegend), IL-2 (10 unit/mL) and anti-human CD40 (1 μg/mL; BioXcell). Human B cell proliferation was measured by ^3[H]-thymidine incorporation (1 μCi/mL) (American Radiolabeled Chemicals). For analysis of surface markers, cells were stained in PBS containing 1% (w/v) bovine serum albumin on ice for 30 minutes, with anti-IgG1 (RMG1-1, Biolegend), anti-CD19 (ID3, Biolegend) anti-B220 (RA3-6B2, Biolegend), anti-CD4 (GK1.5, Biolegend), anti-CD8 (53-6.7, Biolegend), anti-CD25 (PC16, Biolegend), anti-GL7 (GL-7, Biolegend), anti-CD95 (Jo2, BD Biosciences), anti-CD138 (281-2, Biolegend), anti-IgD (11-26c.2a, Biolegend), anti-PD-1 (J43, ThermoFisher), anti-IgM (II/41, ThermoFisher). Antigen specific GC response was detected with tetramer NP-phycoerythrin conjugated with PE (Biosearch Technologies). CXCR5 was stained with biotinylated anti-CXCR5 (2G8) followed by staining with streptavidin-conjugated PE (both from BD Biosciences). Cell viability was assessed using the Fixable Dye Ghost 510 (Tonbo Bioscience) or Annexin V cell apoptosis kit with 7-AAD (ThermoFisher) following the manufacturer's protocol. Phosflow staining for phospho-S6 (S235/236) was performed using Phosflow Fix/Perm kit (BD Biosciences). Mitochondrial potential was measured by staining with 20 nM TMRM (ThermoFisher) following manufacturer's instructions. Flow cytometry was performed on the LSR II, LSR Fortessa (BD Biosciences) or Attune NxT (ThermoFisher) cytometers, and analysis was performed using FlowJo software (Tree Star).

activated murine B cells = assay: Seahorse OCR / ECAR in activated murine B cells
Description: The bioenergetic activities of the OCR and ECAR were measured using a Seahorse XFe96 Extracellular Flux Analyzed following established protocols (Agilent). Briefly, B cells were seeded at 200,000 cells/well on Cell-Tak (Corning) coated XFe96 plate with fresh XF media (Seahorse XF RPMI medium containing 10 mM glucose, 2 mM L-glutamine, and 1 mM sodium pyruvate, PH 7.4; all reagents from Agilent). OCR was measured in the presence of Oligomycin (1.5 μM; Sigma-Aldrich), FCCP (1.5 μM; Sigma-Aldrich), and Rotenone (1 μM; Sigma-Aldrich)/Antimycin A (1 μM; Sigma-Aldrich) in Mito Stress assay. For ECAR measurement, B cells were seeded in XFe96 plate with fresh Seahorse XF RPMI medium with 2 mM L-glutamine (PH 7.4), and treated with glucose (10 mM; Agilent), Oligomycin (1.5 and 2-DG (50 mM; Sigma-Aldrich) orderly in Glycolysis Stress assay.

[1] = test system: LC3-I/LC3-II, p-S6, p-S6K, AID; assay: Immunoblot of LC3-I/LC3-II, p-S6, p-S6K and AID in activated murine B cells
Description: For immunoblotting, cells were lysed in lysis buffer with protease and phosphatase inhibitors (Sigma-Aldrich). Protein concentration in samples were quantified by BCA assay (Thermo Fisher Scientific) before loading the samples for electrophoresis and membrane transfer. The transferred membrane was blocked with TBST (0.1% Tween 20) containing 5% BSA for 1 hour at room temperature. The membrane was incubated with primary antibodies overnight including anti-p-S6 (Ser235/Ser236, D57.2.2E; Cell Signaling), anti-p-p70 S6 kinase (Thr389, 108D2; Cell Signaling), anti-p-4E-BP1 (Thr37/46, 236B4; Cell Signaling), anti-LC3α/β (G-4; Santa Cruz); anti-p-ULK1 (Ser757, D706U; Cell Signaling), anti-AID (EK2 5G9; Cell Signaling), anti-β-actin (13E5; Sigma-Aldrich), and anti-SCD2 (H-12; Santa Cruz). Then, the membrane was washed and incubated with the corresponding secondary antibody for subsequent enhanced chemiluminescence (ECL; Thermo Fisher) exposure. The band intensity of all the immunoblot was analyzed by ImageJ software.

Chop, Atf4, Sqstm1 = assay: RT-PCR of ER stress-related genes in activated B cells
Description: For mRNA analysis, total mRNA was isolated from mouse and human B cells by RNeasy Micro kit (Qiagen), reverse transcribed from mRNA to cDNA for subsequent real-time PCR analysis. Scd1, Scd2, Fasn, Acaca, Chop, Atf4, Sqstm1 in mouse B cells and Scd, Fasn, Acaca expression in human B cells were measured by real-time PCR with a Bio-Rad Realtime PCR system. β-actin expression was used as control.

[2] = LPS/IL-4 activated, fatty acid-BSA conjugate, no inhibitor

SMILES | rescue of proliferation defects caused by SCD inhibition (murine B cells; 100 nM SSI-4 plus exogenous 100 μM OA, 3 days, LPS/IL-4/IL-5, anti-IgM/anti-CD40/IL-4 or CpG/IL-4/IL-5) | rescue of proliferation and IgG1 class switch in SCD1/2 deficient B cells (murine B cells; B cells from Scd1 and Scd2 deficient mice, LPS/IL-4) | rescue of proliferation and IgG1 class switch upon SSI-4 treatment (murine B cells; LPS/IL-4, SSI-4 with exogenous fatty acid) | B cell proliferation, exogenous fatty acid alone (murine B cells; [2]) | IgG1 class switch, exogenous fatty acid alone (murine B cells; [2]) | OA mediated increase of basal respiration with titrated doses (activated murine B cells; exogenous OA 1, 10, 20 and 50) | glycolytic capacity of activated murine B cells (activated murine B cells; exogenous fatty acid, 48 h, Glycolysis Stress test) | B cell respiration (OCR) (activated murine B cells; exogenous fatty acid, 48 h, CpG/IL-4/IL-5 (PO: CpG and anti-IgM/anti-CD40) stimulation) | levels of p-S6K and p-S6 with exogenous OA ([1]; SSI-4 treated or SCD1/2 deficient B cells plus OA) | increased LC3-II/LC3-I ratio with exogenous OA ([1]; SSI-4 treated or SCD deficient B cells plus OA) | ER stress-related gene upregulation with exogenous OA (Chop, Atf4, Sqstm1; SSI-4 plus OA) | IgG1 class switch (murine B cells; LPS/IL-4, SCD inhibitor SSI-4 alone) | proliferation of mouse B cells (CTV dilution) (murine B cells; LPS/IL-4 activated, SCD inhibitor alone) | B cell glycolysis (ECAR) under SCD inhibition (activated murine B cells; SSI-4, 48 hours) | B cell respiration (OCR) under SCD inhibition (activated murine B cells; SSI-4, 48 hours) | levels of p-S6K and p-S6 ([1]; SSI-4 treated B cells) | LC3-II/LC3-I ratio ([1]; SSI-4 treated B cells vs control cells) | expression of activation-induced cytidine deaminase (AID) ([1]; SSI-4 treatment) | ER stress-related genes Chop, Atf4, Sqstm1 (Chop, Atf4, Sqstm1; SSI-4 treatment)
CCCCCCCC/C=C\CCCCCCCC(=O)O [OA, oleic acid] | able to rescue the proliferation defects | fully restored | fully restore both parameters | further enhanced | further enhanced | dose dependent | increased the glycolytic capacity | enhanced B cell respiration | restored | completely rescued | reduced these genes upregulation |  |  |  |  |  |  |  | 
CNC(=O)c1ccnc(NC(=O)N2CCC(Oc3ccccc3Cl)CC2)c1 [SSI-4, 2-{[4-(2-Chlorophenoxy)piperidine-1-carbonyl]amino}-N-methylpyridine-4-carboxamide] |  |  |  |  |  |  |  |  |  |  |  | strongly suppressed | capable of inhibiting B cell proliferation | strongly suppressed | strongly suppressed | decreased | substantial increase | Reduced expression | increased
